We go through one compound from patent US20180185327A1, “FORMULATION COMPRISING PARTICLES AND A LIPASE INHIBITOR” (PERORA GMBH, priority 2015, published 2018).

Structures are written as SMILES. Read-outs that look alike come from different tables or passages of the source.

Data set [1] is described as follows: High fat diet feeding experiments in rats (cream chow with orlistat, with or without polymer or lipid granulate). It is filed as in vivo, male wistar rats. As to conditions: Ex. 3.2: four rats, cream chow 50% fat with added orlistat 0.6 mg/g chow, seven days. How it is done: Animals (male rats) were kept in cages on standard animal bedding (two animals per cage or individual housing) and were provided with ad libitum access to food and water. Animal food was provided as pellets in a pellet rack or as a cream or as granulate powder each filled in a container attached to the inside of the cage.
Body weight was recorded at beginning and end of experiments. Food consumption was documented daily except for weekends. Experiments were performed according to German laws of animal protection.
Rodent chow was purchased from ssniff Spezialdiaten GmbH, Germany; poly(acrylic acid) (PAA, Carbopol® 971 P NF) was obtained from the Lubrizol Corporation, USA; and HPMC (AnyAddy®) was obtained from Harke Pharma, Germany. Orlistat (Hexal, Germany) was purchased in a local pharmacy. Hard fat/tripalmitin (Dynasan® 116), triglyceride (Witepsol® E85), glycerol monooleate (Imwitor®990), and Xanthan were obtained from NRC/Jungbunzlauer, Germany. Glycerol monolaurate (GML 90 food) was obtained from Mosselman, Belgium. Resistant dextrin (Nutriose® FB06) was obtained from Barentz, Germany or Barentz, Netherlands.

The conditions of data set [2]: cited from earlier work.
For data set [3] the following is noted: after an oral dose; cited from earlier work.

Take `CCCCCCCCCCC[C@@H](C[C@@H]1OC(=O)[C@H]1CCCCCC)OC(=O)[C@H](CC(C)C)NC=O` [orlistat]: in data set [1], the “body weight lost (±SD)” value is 2.5±1.4% and the “mean daily food intake” value is 23.6 g. Also, the “dietary fat prevented from being absorbed” value in data set [2] (standard over-the-counter dose of 60 mg) is recorded as “about 25%”. Further, in data set [2] (standard prescription dose of 120 mg three times daily before meals), the “dietary fat prevented from being absorbed” value is given as “approximately 30%”. Further, the amount absorbed systemically in data set [3] is reported as “Only trace amounts”.
